Biological target: T1, Gag-Pol polyprotein [588-1027] (Human immunodeficiency virus type 1 group M subtype B (isolate HXB2), UniProt P04585)
T1 construct: 588-1027
Assay: Reverse Transcriptase Assay
Details: pH 7.8; 37 °C
Method: The inhibition of the RNA-dependent DNA polymerase activity of the HIV-1 reverse transcriptase enzyme was measured using a primer extension assay. The substrate-incorporated radioactivity was measured using the Topcount NXT with a reading time of 1 minute/well and IC50 were deduced from the dose response curves obtained.

## CNCc1n[nH]c2cccc(Oc3cc(C#N)cc(C#N)c3)c12 [5-({3-[(methylamino)methyl]-1H-indazol-4-yl}oxy)benzene-1,3-dicarbonitrile]
  IC50: > 30 µM

From BindingDB's records for doi:10.1021/jm801322h (Pfizer, 2009)
